Measured values as given in ChEMBL document CHEMBL3217462, “FP Tethering: a screening technique to rapidly identify compounds that disrupt protein-protein interactions” (Medchemcomm, 2014).

Experiments:
Homo sapiens [1] = species: Homo sapiens; assay: Binding affinity to CBP KIX domain H602C mutant (unknown origin) after 1 hr by Fluorescent polarization assay
Homo sapiens [2] = species: Homo sapiens; assay: Displacement of fluorescent-labelled pKID from CBP KIX domain H602C mutant (unknown origin) after 1 hr by Fluorescent polarization assay; settings: concentration not given here
Homo sapiens [3] = species: Homo sapiens; assay: Binding affinity to CBP KIX domain H602C mutant (unknown origin) assessed as increase in binding affinity constant for c-Myb by fluorescence polarization tethering assay
Homo sapiens [4] = species: Homo sapiens; assay: Binding affinity to CBP KIX domain H602C mutant (unknown origin) assessed as increase in binding affinity constant for phosphorylated KID by fluorescence polarization tethering assay
Homo sapiens [5] = species: Homo sapiens; assay: Binding affinity to CBP KIX domain H602C mutant (unknown origin) assessed as increase in binding affinity constant for MLL by fluorescence polarization tethering assay
Homo sapiens [6] = species: Homo sapiens; assay: Binding affinity to CBP KIX domain N627C mutant (unknown origin) after 1 hr by Fluorescent polarization assay
[7] = (§1) Displacement of fluorescent-labelled MLL from CBP KIX domain N627C mutant (unknown origin) after 1 hr by Fluorescent polarization assay; parameters: species or system Homo sapiens
Homo sapiens [8] = species: Homo sapiens; assay: as §1
Homo sapiens [9] = species: Homo sapiens; assay: Displacement of fluorescent-labelled MLL from CBP KIX domain N627C mutant (unknown origin) at 250 uM after 1 hr by Fluorescent polarization assay

## CN(C)CCSSCCNC(=O)C1CCN(C(=O)c2ccccc2Nc2ccccc2)CC1
Homo sapiens [1]
  Activity: 15%
Homo sapiens [2]
  inhibition: 22%

## CC(=O)Nc1ccc(Cl)c(NC(=O)NCCSSCCN(C)C)c1
Homo sapiens [3]
  fold change (FC): 9
Homo sapiens [4]
  fold change (FC): 6.5
Homo sapiens [1]
  Activity: 71%
Homo sapiens [2]
  inhibition: 24%
Homo sapiens [5]
  fold change (FC): 9

## CN(C)CCSSCCC(=O)N1CCC(O)(c2ccc(Cl)c(C(F)(F)F)c2)CC1
Homo sapiens [6]
  Activity: 67%
[7]
  IC50: 68 µM
Homo sapiens [8]
  inhibition: Dose-dependent effect
Homo sapiens [9]
  inhibition: 44%

## COc1ccc2cc([C@H](C)C(=O)NCCSSCCN)ccc2c1
Homo sapiens [6]
  Activity: 36%
Homo sapiens [9]
  inhibition: 32%
